Data on 91 compounds can be found in a melting point compilation (Tetko et al.; mined from patent text by program, amines drawn as free bases though some values may be those of a salt).

A value given as a limit tells only on which side of the number the result lay.

For the compound `O=C(O)c1cc(=O)c2cc3c(c(CC(O)CO)c2o1)CCCC3` (stereo unspecified), the melting point was 217 to 218 °C.

`O=C1CCCN1c1cc(-c2ccnc(Nc3cccc(Cl)c3)n2)ccn1` returned a melting point of 165 to 166 °C.

For `O=C1CC(OC2CCCCO2)C(CC2CCCCC2)N1` (stereo unspecified), the melting point lay within 110 to 115 °C.

Turning to `Cc1nccn1Cc1cnn(-c2ccc(Cl)c(Cl)c2)c1`, the melting point lay within 176 to 177 °C.

As to `O=C(Cl)N1CCC(Oc2cc(Cl)cc(Cl)c2)C1` (stereo unspecified), the melting point was 105 to 107 °C.

`CCNC(=O)c1ccc(-n2nnc(C(=O)NC3CC3)c2CNCc2ccccc2)cc1` returned a melting point of 153 °C.

Regarding `CCOC(=O)c1nc(-c2ccc(F)cc2)[nH]c1CC`, the melting point lay in the range of 197 to 198 °C.

In turn, `CC1CCc2c(N3CCC(N(C)C)CC3)c(F)cc3c(=O)c(C(=O)O)cn1c23` (stereo unspecified) had a melting point of 259 to 261 °C.

On to `CCCCCCCCCCCCCCCCCCOc1cc(NC(=O)OCc2ccccc2)cc(OC(C)=O)c1`, for which the melting point fell in the range of 57 to 59 °C.

Compound `Cn1c(SC(C(N)=O)c2ccccc2)nc2ccccc21` (stereo unspecified) yielded a melting point of 185 to 187 °C.

`c1cn(CCc2nc(-c3ccc4c(c3)OCO4)c3cc4c(cc3n2)OCO4)cn1` gave a melting point of 160 to 163 °C.

Compound `CCCCCCCCCCSC(=S)N1Cc2[nH]c3ccccc3c2CC1CO` (stereo unspecified) showed a melting point of 115 to 118 °C.

Consider `Cn1c(=O)cn[nH]c1=O`, for which the melting point was 173 °C.

`O=c1c2cc(Br)ccc2c2cc3c(=O)c4cc(Br)ccc4c3cc12`: the melting point was over 300 °C.

The compound `CCCCC1CCc2ccc(OCc3ccccn3)cc2C1=O` (stereo unspecified) yielded a melting point of 56 to 60 °C.

`O=C(O)c1cnn2c(C(F)(F)F)cc(-c3ccc(OC(F)(F)F)cc3)nc12` returned a melting point of 225 °C.

Regarding `O=C(O)C12CCCCC1CSc1ccccc12` (stereo unspecified), the melting point fell in the range of 200 to 203 °C.

The compound `CCCCCC(C)C(C)c1cc(O)cc(OC(NC(C)=O)c2ccccc2)c1` (stereo unspecified) yielded a melting point of 196 to 199 °C.

Turning to `CCCCCCCCCCC(O)C(O)CN` (stereo unspecified), the melting point is 98 to 100 °C.

For `CCOC(=O)c1cn(-c2ccc(F)cc2)nc1C`, the melting point is 103 to 104 °C.

The compound `COC(=O)c1c(Cc2ccc(S(=O)(=O)NCCO)cc2)c(=O)c2ccc(Cl)cc2n1-c1ccccc1` showed a melting point of 192 to 193 °C.

On to `Cc1ccc(-c2c(NS(=O)(=O)c3ccc(C(C)(C)C)cc3)ncnc2OCCOc2ccc(NC(=O)c3ccccc3)cn2)cc1`, for which the melting point is 173 to 174 °C.

Compound `COCCOC1CC(c2ccccc2)Oc2c1ccc1c2nc(C)n1C` (stereo unspecified) registered a melting point of 148 to 149 °C.

`CNCc1nc(C(=O)NC)c2n1-c1ccc(Cl)cc1C(c1ccccc1Cl)=NC2` showed a melting point of 270 to 273 °C.

For `CC1(C)C(C=C2CCCC2)C1C(=O)OC(C#N)c1ccc(F)c(Oc2ccccc2)c1` (stereo unspecified), the melting point was found to be 81 °C.

Regarding `O=C(O)COc1cc(Cl)ccc1C(=O)NCc1ccc(Cl)c(Cl)c1`, the melting point was in the range of 177 to 178 °C.

Regarding `O=C(C1CCCCC1)N(CCN1CCN(CC(O)c2ccccc2)CC1)c1ccccn1` (stereo unspecified), the melting point lay in the range of 140 to 142 °C.

As to `COC(=O)COc1ccc(C(=O)CNC(=O)c2ccc(C#N)cc2)cc1`, the melting point lay within 200 to 203 °C.

With `Cc1ccc2[nH]c3c(cc(-c4cccc(C=O)c4)c(=O)n3C)c2c1`, the melting point was 280 °C.

For `O=C1c2cccnc2N(N2CCOCC2)C2=NCCN12`, the melting point lay in the range of 225 to 226 °C.

On to `CC(=O)NCC1CC1c1cccc2nc(C(F)(F)F)cn12` (stereo unspecified), for which the melting point lay in the range of 135 to 137 °C.

For `FC(F)(F)c1cnc(-c2ccc(Cl)c(CBr)c2)c(Cl)c1`, the melting point lay in the range of 71 to 72 °C.

Compound `Cc1c(O[Si](C(C)C)(C(C)C)C(C)C)cc2occ(N3CCC(O)(c4ccc(F)cc4)CC3)c(=O)c2c1Br` had a melting point of 193 to 195 °C.

Turning to `COC(=O)c1cccnc1Oc1ccc(F)cc1`, the melting point lay in the range of 97 to 99 °C.

For the compound `CCCCCCCCCCCCc1ccc(NC(C)=O)c([N+](=O)[O-])c1`, the melting point was 71 to 73 °C.

Compound `COC(=O)c1ccc(NC(=O)c2ccccc2C)nc1` gave a melting point of 167 to 169 °C.

`CC1(C)NC(C(=O)O)C(C)(C)S1` (stereo unspecified) showed a melting point of 206 to 208 °C.

As for `COc1cccc(-c2nc(-c3ccccn3)no2)c1`, the melting point lay in the range of 96 to 99 °C.

Regarding `CC(=O)OCOC(=O)Oc1c(Br)cc(C#N)cc1Br`, the melting point was in the range of 84 to 86 °C.

Turning to `COC(=O)c1ccc(CC(C)NCC(O)c2ccc(O)c(CO)c2)c(OC)c1` (stereo unspecified), the melting point fell in the range of 96 to 105 °C.

`Cc1ccc(CN2CCc3ccc(C(=O)CCC(=O)N4CCC(c5ccc(Cl)cc5)CC4)cc3CC2)cc1` registered a melting point of 137 to 138 °C.

With `Nc1nc(Nc2ccccc2)sc1C=O`, the melting point is 212 to 213 °C.

As to `CN1CCCC1=NC(=O)Nc1ccc(Cl)c(C(F)(F)F)c1`, the melting point was determined as 175 °C.

`CCOC(=O)C1=C(C)N(C2CC2)C(C)=C(C(=O)OC)C1c1ccc(C(F)(F)F)cc1` (stereo unspecified): the melting point worked out at 110 °C.

In turn, `CC(=O)CCNc1cc(C(=O)O)cc(S(N)(=O)=O)c1Oc1ccccc1` showed a melting point of 215 to 216 °C.

With `O=C1Cc2cccc(Oc3ccccc3)c2N1`, the melting point was 135 to 146 °C.

For `O=C(O)C1=Cc2cc(Cl)c(Oc3ccc4cc(Br)ccc4c3)cc2OC1C(F)(F)F` (stereo unspecified), the melting point was in the range of 253 to 255 °C.

As to `COC(=O)COc1ccc(C(O)CNCc2ccc(C(=O)OC)cc2)cc1` (stereo unspecified), the melting point was 97 to 100 °C.

For the compound `COCCn1cc2c(C3C(=O)Nc4ccc(Br)cc43)nc(NCCC3CCCNC3)nc2n1` (stereo unspecified), the melting point was in the range of 270 to 273 °C.

With `O=C(O)C1CCC(=O)N1Cc1cccc(F)c1` (stereo unspecified), the melting point is 114 to 116 °C.

For `Cc1cc(C)c(-n2ccc3c(Cl)nnc(Cl)c32)c(C)c1`, the melting point was 169 to 170 °C.

`CC#CCOc1ccc(C(=O)NC[C@@H](C(=O)NO)N2CCN(S(C)(=O)=O)CC2)cc1` gave a melting point of 127 °C.

The compound `CC1=CC(OC(=O)c2ccc(N)cc2)C(O)C(C)(C)CC1=O` (stereo unspecified) registered a melting point of 152 to 153 °C.

`CCCCN(Cc1ccc(-c2ccccc2S(=O)(=O)NC(C)(C)C)cc1)C(=O)Cl`: the melting point was in the range of 128 to 129 °C.

`Cn1cc(C(F)(F)F)c(C(=O)O)n1` came in with a melting point of 174 to 175 °C.

On to `NC(=S)c1ncn2c1[C@@H]1CCN1C(=O)c1c(Cl)cccc1-2`, for which the melting point lay within 250 to 253 °C.

In turn, `CC(=O)c1cc(C2CCCCC2)ccc1O` returned a melting point of under 50 °C.

Compound `COC(=O)c1nc(-c2ccc(Cl)cc2)c(Cl)c(N)c1OC` showed a melting point of 139 to 141 °C.

Regarding `Cn1cc(-c2cc3cccnc3[nH]2)c2cc(OCCO)ccc21`, the melting point is 209 to 210 °C.

Compound `CCOC(=O)CC(=O)c1ccc(Br)cc1Cl` returned a melting point of 34 °C.

`CCOC(=O)C(S)CC(=O)c1ccc(Oc2ccccc2)cc1` (stereo unspecified) displayed a melting point of 46 to 47.5 °C.

`O=C1C=C(O)C(Cc2ccc(Br)cc2)S1` (stereo unspecified) displayed a melting point of 156 to 157 °C.

In the case of `COc1cc2[nH]nc(CN3CCN(c4ccccc4OC)CC3)c2cc1OC`, the melting point was 192 °C.

With `CCC1Cc2c(C)c(OCC(=O)O)c(C)c(C)c2C1=O` (stereo unspecified), the melting point is 136 to 137 °C.

`CCOC(=O)c1ccc(NC(=O)Nc2c(OC)ccc3c2C(C)(C)COC3(C)C)cc1` registered a melting point of 147 to 149 °C.

Take `COc1ccc(C(=O)Cc2c(Cl)cncc2Cl)c2c1CC1(CCCC1)O2`: the melting point was in the range of 70 to 72 °C.

Compound `CC(C)(C)OC(=O)Nc1cc(N2CCC(OCCOC3CCCCO3)CC2)c(-c2ccc(F)cc2)cc1NC(=O)CC(=O)c1cccc(-n2ccnc2)c1` (racemic) had a melting point of 57 to 58 °C.

`COC(=O)c1ccc(C#Cc2cncc(C3CCCN3C)c2)cc1` (stereo unspecified) yielded a melting point of 97 to 98 °C.

`CCOCCn1cc2c(C3C(=O)Nc4ccc(Cl)cc43)nc(NCCN(C)C)nc2n1` (stereo unspecified) came in with a melting point of 293 to 295 °C.

Compound `NC(=O)c1ccnc(N2CCN(Cc3ccc(F)cc3)C2=O)c1` returned a melting point of 206 to 208 °C.

Take `C=CCn1ccc2cc(NC(=O)c3nc4ccc(Cl)cc4n3Cc3ccccc3)ccc21`: the melting point lay within 154 to 155 °C.

Take `CC(=O)N(C(C)=O)c1csc(Br)n1`: the melting point was in the range of 63 to 65 °C.

Compound `COC(C)=CC(=O)NC1CCCCCC1` returned a melting point of 120 °C.

`CCCOc1ccc(NC(=O)N2CCN(c3ncnc4cc(OC)c(OC)cc34)CC2)cc1` yielded a melting point of 218 to 220 °C.

As to `C=CCNc1cc(C)nc2c(-c3ccccc3)n[nH]c12`, the melting point was 92 to 105 °C.

With `O=c1ccc2c(OS(=O)(=O)C(F)(F)F)cccc2o1`, the melting point was in the range of 104 to 105 °C.

Regarding `Oc1ccc2c(c1)COc1c-2cc2ccc(O)cc2c1-c1ccco1`, the melting point lay in the range of 158 to 163 °C.

For the compound `COc1ccc(NC(=O)c2ccc([N+](=O)[O-])cc2NC(=O)c2ccc(C(C)(C)C)cc2)cc1`, the melting point was 221 °C.

`CCc1c(-c2ccc(O)cc2)c2c(COC)cc3cccc1n32` displayed a melting point of over 130 °C.

On to `ClCCCOc1ccc2ccccc2c1`, for which the melting point was 46 to 49 °C.

On to `CC(C)=CCC/C(C)=C/COCC(=O)c1cc(C(C)C)c(O)c(C(C)C)c1`, for which the melting point fell in the range of 70 to 71 °C.

Regarding `CCOc1cc(N)c(Cl)cc1C(=O)NCC1CN(CC2CCN(C#N)CC2)CCO1` (stereo unspecified), the melting point is 197 °C.

As to `Cc1ccc(-c2cc(Cl)cc3c2NC(CN)CO3)c(C(F)(F)F)c1` (stereo unspecified), the melting point was determined as 98 °C.

Compound `COc1cc(N=C(N)c2cccs2)ccc1N1CCN(C(=O)NCCCCC2CCSS2)CC1` (stereo unspecified) returned a melting point of 186 °C.

For `CC(=O)Nc1ccc2c(c1)OCCCO2`, the melting point lay within 108 to 109 °C.

For the compound `CCCCCC1CCC2c3ccc(OCC)c(F)c3OC2C1` (stereo unspecified), the melting point was 118 °C.

`CCc1nccn1N=Cc1ccc(N(C)C)cc1` registered a melting point of 120 to 121 °C.

`CCOC(=O)COC(=O)c1c(I)c(NC(C)=O)c(I)c(NC(C)=O)c1I` came in with a melting point of 270 °C.

As for `O=c1cc(-c2cc[nH]n2)oc2ccc(Cl)cc12`, the melting point fell in the range of 217 to 219 °C.

As to `OC(CSc1nccs1)(Cn1cncn1)c1ccc(Cl)cc1Cl` (stereo unspecified), the melting point fell in the range of 110 to 111 °C.

`O=S(=O)(C#Cc1ccccc1)c1ccccc1`: the melting point was determined as 73 °C.

Broadly, the melting point is the temperature, or range, at which the solid turns liquid.
